Laboratory results published in PMC10799935, “Discovery of a peripheral 5HT2A antagonist as a clinical candidate for metabolic dysfunction-associated steatohepatitis” (Nature Communications, 2024).

Target: 5HT2A (Homo sapiens, UniProt P28223)
Experiment: Human 5HT2A inhibition assay (FLIPR calcium 6, 5HT stimulus, stably transfected HEK293 cells)
Type: cell-based
Design: expressed in transfected cells; host or cells: HEK293
Settings: for inhibition at 1 µM: HEK293, 1 μM, read-out: % Inhibition at 1 μM (SD)
Procedure: The derivatives were evaluated at a concentration of 1 μM for their antagonist activity on the 5HT2A receptor (Tables 1–3)[33],[34]. […] The cells were stained with 100 μL of cytosolic calcium dye using the FLIPR calcium 6 assay solution (Molecular devices, #R8190) supplemented with 2.5 mM probenecid (Sigma; P8761) and incubated for 1 h at 37 °C. After 1 h, the designated amount of the compound was treated in each well and incubated for another 1 h at 37 °C. […] Experimental conditions for the 5HT subtypes can be found in the Supporting Information (Supplementary Table 1).

Sequence of 5HT2A (P28223 whole entry): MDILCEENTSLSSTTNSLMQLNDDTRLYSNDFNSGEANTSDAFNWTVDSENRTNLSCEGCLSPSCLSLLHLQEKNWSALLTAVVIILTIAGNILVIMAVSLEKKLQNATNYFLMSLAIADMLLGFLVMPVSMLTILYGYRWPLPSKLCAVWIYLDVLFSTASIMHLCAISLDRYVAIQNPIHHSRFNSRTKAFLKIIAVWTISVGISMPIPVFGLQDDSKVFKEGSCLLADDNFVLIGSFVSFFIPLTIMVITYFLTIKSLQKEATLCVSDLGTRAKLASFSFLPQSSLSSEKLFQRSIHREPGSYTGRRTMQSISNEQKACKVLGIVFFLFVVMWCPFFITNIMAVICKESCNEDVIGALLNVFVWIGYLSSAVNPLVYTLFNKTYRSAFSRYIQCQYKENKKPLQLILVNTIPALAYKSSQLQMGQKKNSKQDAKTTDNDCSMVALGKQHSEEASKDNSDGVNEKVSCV

| Structure (SMILES) | IC50 [nM] | IC50 (nM) | inhibition at 1 µM [%] | % Inhibition at 1 μM (SD) [%] |
| --- | --- | --- | --- | --- |
| Cc1nc2n(c(=O)c1CCN1CCC(=C3c4ccc(Cl)cc4CCc4cccnc43)CC1)CCC[C@@H]2O (single isomer, unassigned) [22 f] | – | – | – | 96.07 ± 1.87 |
| Cc1nc2n(c(=O)c1CCN1CCC(=C3c4ccc(Cl)cc4CCc4cccnc43)CC1)CCC[C@@H]2O (single isomer, unassigned) [Compound 22 f] | 10.6 | – | – | – |
| Cc1nc2n(c(=O)c1CCN1CCC(=C3c4ccc(Cl)cc4CCc4cccnc43)CC1)CCC[C@H]2O (single isomer, unassigned) [Compound 22 g] | 11.1 | – | – | – |
| O=C1Cc2cc(C(=O)CN3CCC(=C4c5ccc(Cl)cc5CCc5cccnc54)CC3)c(Cl)cc2N1 [Compound 8c] | – | – | 73 | 73.02 ± 0.51 |
| Cc1nc2n(c(=O)c1CCN1CCC(=C3c4ccc(Cl)cc4CCc4cccnc43)CC1)CCC[C@H]2O (single isomer, unassigned) [22 g] | – | – | – | 97.17 ± 7.11 |
| O=C1Cc2cc(C(=O)CN3CCC(=C4c5ccc(Cl)cc5CCc5cccnc54)CC3)ccc2N1 [Compound 8b] | – | – | 68 | 68.34 ± 2.78 |

Results, then the compound that gave them:

| IC50 [nM] | IC50 (nM) | inhibition at 1 µM [%] | % Inhibition at 1 μM (SD) [%] | Structure (SMILES) |
| --- | --- | --- | --- | --- |
| 61 | less potency than compound 11c | 89.2 ± 11 | – | Cc1nc2n(c(=O)c1CCN1CCC(=C3c4ccccc4CCc4cccnc43)CC1)CCCC2O (centres unmarked) [Compound 11e] |
| 81.4 | – | 83.2 ± 1.98 | – | O=C(CN1CCC(=C2c3ccc(Cl)cc3CCc3cccnc32)CC1)c1ccc(Br)cc1 [Compound 8a] |
| 21.4 | – | 92.2 ± 1.59 | – | O=C1Cc2cc(C(O)CN3CCC(=C4c5ccc(Cl)cc5CCc5cccnc54)CC3)ccc2N1 (centres unmarked) [Compound 9b] |
| – | – | – | 94.47 ± 1.53 | O=C1Cc2cc(CCN3CCC(=C4c5ccc(Cl)cc5CCc5cccnc54)CC3)c(Cl)cc2N1 [Compound 11a] |
| 22.2 | – | 93.8 ± 3.13 | – | O=C1Cc2cc(C(O)CN3CCC(=C4c5ccc(Cl)cc5CCc5cccnc54)CC3)c(Cl)cc2N1 (centres unmarked) [Compound 9c] |
| 31.9 | – | 92 ± 1.07 | – | OC(CN1CCC(=C2c3ccc(Cl)cc3CCc3cccnc32)CC1)c1ccc(Br)cc1 (centres unmarked) [Compound 9a] |
